Data taken from publication PMC6270246, “Anthraquinones of the Roots of Pentas micrantha” (Molecules, 2012).
Read-outs that look alike come from different tables or passages of the source.

Assays:
[1] = Cytotoxicity assay (PrestoBlue cell viability, 48 h); type: cell-based; conditions: human, MCF-7 breast cancer cells, MCF-7 cells, mean of at least six independent experiments, read-out: CC50 (cytotoxic concentration)
Method: MCF-7 human breast cancer cells were cultured in Dulbecco’s modified eagle medium (DMEM) supplemented with 10% (v/v) fetal bovine serum, 2 mM L-glutamine, 100 units/mL penicillin and 100 µg/mL streptomycin at 37 °C in humidified 5% CO2. For cytotoxicity assays, cells were seeded in 96-well plates at optimal cell density to ensure exponential growth for the duration of the assay. After a 24-h preincubation growth, the medium was replaced with experimental medium containing the appropriate drug concentrations or vehicle controls (0.1% or 1.0% v/v DMSO). After 48 h incubation, cell viability was measured using PrestoBlue™ Cell Viability Reagent (Invitrogen Ab, Lidingö, Sweden) according to the manufacturer’s instructions. […] Results were expressed as the mean ± standard error for six replicates as a percentage of vehicle control (taken as 100%). Experiments were performed independently at least six times. Statistical analyses were performed using a two-tailed Student’s t-test. p < 0.05 was considered to be statistically significant.

[2] = system: Indochina W2 chloroquine-resistant Plasmodium falciparum strain; assay: Malaria SYBR Green I-based in vitro drug susceptibility assay, W2 strain; type: cell-based
Method: (§1) For cytotoxicity (CC50) assay 1-isopropyl-3-(pyridin-4-ylethynyl)-1H-pyrazolo[3,4-d]pyrimidin-4-amine was used as reference substance.
(§2) Sierra Leone D6 chloroquine-sensitive and the Indochina W2 chloroquine-resistant Plasmodium falciparum strains (donated by the Walter Reed Army Institute for Research [WRAIR], 503 Robert Grant Avenue, Silver Spring, MD 20910, USA) were maintained in continuous culture to attain replication robustness prior to assays. Drug susceptibility was tested by the Malaria SYBR Green I-based in vitro assay technique.

[3] = system: Sierra Leone D6 chloroquine-sensitive Plasmodium falciparum strain; assay: Malaria SYBR Green I-based in vitro drug susceptibility assay, D6 strain; type: cell-based
Method: as §1, §2

[4] = system: MCF-7 human breast cancer cells; design: method as in PMID 21979929; conditions: MCF-7 cells; bioactivity previously published; read-out: CC50 (cytotoxic concentration); cited from earlier work
[5] = system: Sierra Leone D6 chloroquine-sensitive Plasmodium falciparum strain; design: method as in PMID 21979929; conditions: P. falciparum D6 strain; in vitro; bioactivity previously published; cited from earlier work
[6] = system: Indochina W2 chloroquine-resistant Plasmodium falciparum strain; design: method as in PMID 21979929; conditions: P. falciparum W2 strain; in vitro; bioactivity previously published; cited from earlier work

Row | SMILES | CC50 [4] [µM] | IC50 [5] [µM] | IC50 [6] [µM] | also measured
1 | COCc1c(O)cc2c(c1O)C(=O)c1ccc(O)c(O)c1C2=O [Compound 6, 1,3,5,6-tetrahydroxy-2-(methoxymethyl)-9,10-anthraquinone] |  |  |  | CC50 at 48 h [1]: 258 µM; IC50 ([2]; P. falciparum W2 strain, in vitro, mean of at least 3 independent experiments, read-out: IC50 W2): 35.41 ± 0.01 µM; IC50 ([3]; P. falciparum D6 strain, in vitro, mean of at least 3 independent experiments, read-out: IC50 D6): 31.84 ± 0.01 µM
2 | COc1c(CO)c(O)cc2c1C(=O)c1ccc(O)c(O)c1C2=O [Compound 8, 5,6-dihydroxydamnacanthol] | > 450 | 47.53 ± 0.01 | 61.17 ± 0.02 | 
3 | CCN(CC)CCCC(C)Nc1ccnc2cc(Cl)ccc12 (centres unmarked) [chloroquine] |  |  |  | IC50 ([2]; W2, read-out: IC50 (W2)): 0.522 µM; IC50 ([3]; D6, read-out: IC50 (D6)): 0.0147 µM
4 | Cc1c(O)cc2c(c1O)C(=O)c1ccccc1C2=O [Compound 5, rubiadin] | 310 | 21.5 | 31.91 ± 0.01 | 
5 | COc1c(CO)c(O)cc2c1C(=O)c1ccccc1C2=O [Compound 3, damnacanthol] | 238 | 56.6 | 110.6 ± 0.01 | 
6 | OC(c1cc(C(F)(F)F)nc2c(C(F)(F)F)cccc12)C1CCCCN1 (centres unmarked) [mefloquine] |  |  |  | IC50 ([2]; P. falciparum W2 strain, positive controls, read-out: IC50 (W2)): 0.00665 µM; IC50 ([3]; P. falciparum D6 strain, positive controls, read-out: IC50 (D6)): 0.0876 µM
7 | CC(C)n1nc(C#Cc2ccncc2)c2c(N)ncnc21 [1-isopropyl-3-(pyridin-4-ylethynyl)-1H-pyrazolo[3,4-d]pyrimidin-4-amine, reference compound] |  |  |  | CC50 at 48 h [1]: 5 µM
8 | COCc1c(O)cc2c(c1O)C(=O)c1ccccc1C2=O [Compound 2, lucidin-ω-methyl ether] | > 352 | 42.54 ± 0.01 | 46.44 ± 0.01 | 
9 | COc1c(C=O)c(O)cc2c1C(=O)c1ccccc1C2=O [Compound 7, damnacanthal] | 316 | 27.2 | 38.6 | 
10 | COc1c(C)c(O)cc2c1C(=O)c1ccccc1C2=O [Compound 4, rubiadin-1-methyl ether] | 208 | 45.07 ± 0.01 | 70.6 | 
11 | Cc1ccc2c(c1)C(=O)c1ccccc1C2=O [Compound 1, tectoquinone] | > 100 | 30.36 ± 0.01 | 48.56 ± 0.01 | 
